Measurements as given in patent US20180311237A1, “COMPOSITIONS AND METHODS FOR PREVENTING AND TREATING MUCOSITIS AND WEIGHT LOSS” (ST IP Holding AG, priority 2007, published 2018).
Where two headings read alike, the source gives them in different places. Marks after values point to notes of the source that are not given here.

How the values were obtained:
[1] = tested on: endogenous spleen colony forming units (CFU-S); conditions: day 10 post-irradiation
Protocol: The endogenous spleen colony assay was done according to the method of Till and McCulloch. Endogenous spleen colony forming units (CFU-S) were determined on day 10 after irradiation. Animals were sacrificed by cervical dislocation. Their spleens were removed, weighed and fixed in Bouin's fixative. Grossly visible nodules on the surface of the spleen were counted with the naked eye.

[2] = 50, 100, 200 or 400 kg/body weight/day orally for 2 consecutive days, observed 30 days
From the text: Male Swiss albino mice (Mus musculus), 6-8 weeks old with 25±3 g body weight from an inbred colony (obtained from Hamadard University, Delhi, India) were used for the present study. Animals were maintained under controlled conditions of temperature and light in an animal house and were provided with standard mice feed (procured from Hindustan Lever's Ltd. Delhi, India) and water ad libitum.

[3] = tested on: NCI-H146 (H146) small cell lung cancer cells
Protocol: Ninety-six (96) female nude mice ([…]) were randomly assigned into 8 treatment groups. Each mouse was inoculated with 1×10^6 NCI-H146 (H146) small cell lung cancer cells in a volume of 0.05 mL on their lower left flank with Matrigel. Treatment began once tumors reached a volume of 75-125 mm^3.
Initiation of drug treatment was designated day 1. Mice in groups 1 and 5 received vehicle by oral gavage once daily on days 1 and 3. […] Mice in groups 5 to 8 received radiation. The radiation was given as 2 doses of 2 Gy/dose on days 2 and 4. This was accomplished by anesthetizing the mice in these groups with ketamine (100 mg/kg) and xylazine (5 mg/kg) and placing them under a lead shield such that the region of the flank with tumor exposed to the radiation. Radiation was delivered using a Philips 160 kV source at a focal distance of approximately 40 cm, and a dose rate of approximately 1.0 Gy/min. Tumours were measured on alternating days throughout the duration of the study. All mice were sacrificed on day 21 and remaining tumours were excised, measured, weighed, photographed and fixed in formalin for later analysis.
H146 human lung cancer cells were obtained from ATCC. These cells were grown in DMEM supplemented with 10% Fetal Calf Serum (FCS), penicillin and streptomycin, and 2 mM L-Glutamine. Cells were sub-cultured by removing the medium, rinsing twice with sterile calcium- and magnesium-free phosphate buffered saline (PBS) and adding 1 to 2 ml of 0.25% trypsin, 0.03% EDTA solution. The flask was allowed to sit at 37° C. until the cells detached. Cells were then sub-cultured at a ratio of 1:3.
Tumours were measured once every two days with micro-calipers, and tumour volume was calculated as (length×width)[…]. The tumour growth index (TGI) was calculated using the formula 100−([…]), where Vc is the mean volume of the tumours in the control group and Vt is the mean volume of the tumours in the test group.
Tumour volumes were calculated from the length and width measurements taken on alternating days by calculating the mean radius (r), which was the sum of length and width divided by 4, and using the formula 4/3 πr^3 to calculate the volume.

[4] = tested on: lipid peroxidation (TBARS)
Protocol: (§1) Thirty minutes after the last administration, the animals were exposed to 8 Gy gamma radiation. Survival of the animals was recorded for 30 days after irradiation. The reduced glutathione (GSH) and lipid peroxidation (LPO) levels in liver and blood were estimated after 30 minutes of radiation exposure.
The absorbance was read at 532 nm.

[5] = Protocol: The general condition and body weights of the mice in all groups were observed daily. The percent change in body weight in each group of mice was recorded every day by dividing the average body weight of those mice on the first day of treatment.
Remark: listed apart in the source
[6] = tested on: reduced glutathione (GSH)
Protocol: as §1
The hepatic level of reduced glutathione (GSH) was determined as per the standard method. GSH content in blood was measured
Spectrophotometrically using Ellman's reagent (DTNB) as a colouring reagent. The absorbance was read at 412 nm using a UV-VIS Systronics Spectrophotometer.

[7] = 50 mg/kg on days 1 and 3, no radiation
[8] = 50 mg/kg on days 1 to 20, no radiation
[9] = 100 mg/kg on days 1 and 3, no radiation
[10] = radiation plus 50 mg/kg on days 1 and 3
[11] = radiation plus 50 mg/kg on days 1 to 20
[12] = radiation plus 100 mg/kg on days 1 and 3
[13] = 100 mg/kg body weight/day, 2 days, + gamma radiation

Cc1c(-c2cnccn2)ssc1=S
Number of macroscopic colonies ([1]; drug + 6 Gy): 10.22 ± 0.62
Number of macroscopic colonies ([1]; drug + 8 Gy): 13.80 ± 0.84^c
Number of macroscopic colonies ([1]; drug + 10 Gy): 15.22 ± 0.77^c
toxic effect (mortality or any other sign) [2]: did not produce any toxic effect
mean tumour volume on Day 1 [3, 7]: 72 mm^3
mean tumour volume on Day 21 [3, 7]: 940 mm^3
mean tumour volume on Day 1 [3, 8]: 76 mm^3
mean tumour volume on Day 21 [3, 8]: 1130 mm^3
mean tumour volume on Day 1 [3, 9]: 110 mm^3
mean tumour volume on Day 21 [3, 9]: 1341 mm^3
effect on tumour volume when given in conjunction with radiation therapy ([3]; doses and dose schedules of this study): does not have an additive effect
mean tumour volume on Day 1 [3, 10]: 93 mm^3
mean tumour volume on Day 21 [3, 10]: 971 mm^3
mean tumour volume on Day 1 [3, 11]: 140 mm^3
mean tumour volume on Day 21 [3, 11]: 1380 mm^3
mean tumour volume on Day 1 [3, 12]: 63 mm^3
mean tumour volume on Day 21 [3, 12]: 769 mm^3
tumour volume relative to vehicle controls by day 21 ([3]; single agent, 50 mg/kg once daily on days 1 and 3 (P=0.030)): significant reduction in tumour volume
Blood LPO ([4]; drug + 6 Gy): 2.44 ± 0.16^c nmol/ml
Liver LPO ([4]; drug + 6 Gy): 3.22 ± 0.12^c nmol/mg
Blood LPO ([4]; drug + 8 Gy): 3.28 ± 0.16^a nmol/ml
Liver LPO ([4]; drug + 8 Gy): 3.80 ± 0.14^c nmol/mg
Blood LPO ([4]; drug + 10 Gy): 3.68 ± 0.18^b nmol/ml
Liver LPO ([4]; drug + 10 Gy): 5.22 ± 0.27^c nmol/mg
Blood LPO ([4]; drug alone, no irradiation): 1.10 ± 0.10 nmol/mL
Liver LPO ([4]; drug alone, no irradiation): 2.42 ± 0.14 nmol/mg
Maximum body weight loss in experimental groups [5, 13]: 22.05%
minimum body weight loss in experimental groups [5, 13]: 1.7%
increase in body weight from initial body weight at day-30 post-irradiation ([5]; drug + 6 Gy): 17%
increase in body weight from initial body weight at day-30 post-irradiation ([5]; drug + 8 Gy): 9.5%
increase in body weight from initial body weight at day-30 post-irradiation ([5]; drug + 10 Gy): 13.7%
dose up to which no signs of toxicity and no mortality were observed (fasted 18 hours, observed 14 days post-drug treatment): up to 2 g/kg
amount administrable without significant toxicity (formulated with carboxymethyl cellulose (CMC)): up to 2000 mg/kg
Blood GSH ([6]; drug + 6 Gy): 3.02 ± 0.12^c μg/ml
Liver GSH ([6]; drug + 6 Gy): 52.44 ± 1.54^b μmole/gm
Blood GSH ([6]; drug + 8 Gy): 2.88 ± 0.11^b μg/ml
Liver GSH ([6]; drug + 8 Gy): 54.62 ± 1.72^c μmole/gm
Blood GSH ([6]; drug + 10 Gy): 2.40 ± 0.12 µg/mL
Liver GSH ([6]; drug + 10 Gy): 44.38 ± 1.42^c μmole/gm
Blood GSH ([6]; drug alone, no irradiation): 4.18 ± 0.18 µg/mL
Liver GSH ([6]; drug alone, no irradiation): 65.68 ± 1.48 μmole/gm
